According to PubChem BioAssay (NCI):
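Interpolation was linear, between the two tested concentrations surrounding the appropriate level; five concentrations were tested over 48 hours in 96-well plates. The concentration for 50% growth inhibition is given as GI50. The concentration for full growth arrest is given as TGI.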

Tests used:
Test in all cases: NCI anticancer screen, dose series, 48 h
SNB-19 CNS = system: SNB-19 CNS
MCF7 breast = system: MCF7 breast
SNB-75 CNS = system: SNB-75 CNS
HCT-116 colon = system: HCT-116 colon
A498 renal = system: A498 renal
OVCAR-3 ovarian = system: OVCAR-3 ovarian
EKVX NSCLC = system: EKVX NSCLC
A549 NSCLC = system: A549 NSCLC
DMS 114 small cell lung = system: DMS 114 small cell lung
KM20L2 colon = system: KM20L2 colon

SMILES | GI50 (SNB-19 CNS) [µM] | TGI (SNB-19 CNS) [µM] | GI50 (MCF7 breast) [µM] | TGI (MCF7 breast) [µM] | GI50 (SNB-75 CNS) [µM] | TGI (SNB-75 CNS) [µM] | GI50 (HCT-116 colon) [µM] | TGI (HCT-116 colon) [µM] | GI50 (A498 renal) [µM] | TGI (A498 renal) [µM] | GI50 (OVCAR-3 ovarian) [µM] | TGI (OVCAR-3 ovarian) [µM] | GI50 (EKVX NSCLC) [µM] | TGI (EKVX NSCLC) [µM] | GI50 (A549 NSCLC) [µM] | TGI (A549 NSCLC) [µM] | TGI (DMS 114 small cell lung) [µM] | TGI (KM20L2 colon) [µM]
CN(C[C@@H]1COCCO1)S(=O)(=O)Nc1ccc2ccc3ncc(-c4cnn(C)c4)cc3c(=O)c2c1 | 12.5 | > 100 | 12.8 | > 100 | 1.6 | > 27.4 | 3.87 | > 100 | 0.447 | 2.18 | 11.8 | > 100 | 19.1 | > 100 | 6.64 | > 100 |  | 
CCN1C(=O)N(c2ccccc2)C2NN=c3s/c(=C4\C(=O)N(C(C)C)c5ccccc54)c(=O)n3C21 (centres undefined) | 2.1 | > 100 | 0.483 | > 100 | 0.253 | 4.79 | 2.18 | 8.24 | 0.367 | 1.64 | 0.886 | 3.1 | 1.83 | > 100 | 1.43 | > 40.5 |  | 
Cc1ccc2[nH]c3c(ncc4[nH]c5ccccc5c43)c2c1 |  | 31.6 |  |  |  | 28.5 |  | 30.8 |  |  |  | > 10 |  | 29.3 |  | 32.7 | 31.3 | 31.8
COc1ccc2c(c1)[n+](=O)c(C(=O)/C=C/c1cc(OC)c(OC)c(OC)c1)c(C)n2[O-] | 14.1 | 36.5 | 18 | 88.4 | 12 | 34.7 | 16.9 | 65.5 | 16.4 | 57.5 | 27.3 | > 100 | 1.97 | 15.1 | 34.9 | > 100 |  | 
C#CCOc1cccc(Nc2ncnc3ccc(NC(=O)CCl)cc23)c1 | 1.88 | 81.9 | 0.428 | 14.4 | 1.87 | > 100 | 0.0493 | 5.25 | 4.6 | 21.4 | 0.908 | 7.06 | 3.5 | 23.6 | 0.225 | > 44 |  | 
CCCCCC/C=C\CCCCCCCCCC1=CC(=O)C=C(OC)C1=O |  | 20.1 |  | 15.3 |  | 8.07 |  | 12.2 |  | 13.5 |  | 17.6 |  | 12.5 |  | 16.3 |  | 
CCCCn1sc(=O)n(Cc2ccc(CNC(=O)OCc3ccc4c(Br)cc(Br)c(O)c4n3)cc2)c1=O | 2.66 | > 100 | 0.369 | > 100 | 0.499 | > 100 | 0.344 | > 100 | 0.105 | 0.602 | 0.292 | 0.8 | > 40.6 | > 100 | 3.76 | > 100 |  | 
CC/C(C)=C1\OC(=O)C(C)C(O)C(Cc2cccnc2)NC(=O)C(NC(=O)c2ncccc2O)C(C)OC1=O (centres undefined) |  | > 100 |  | > 100 |  | > 100 |  | > 100 |  | > 100 |  | > 100 |  | > 100 |  | > 100 |  | 
